Measured values: ChEMBL document CHEMBL1201862, “PubChem BioAssay data set” (2004)
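All cell lines were grown in 96-well plates and treated with compound for 48 hours. GI50 is the concentration that inhibits growth by half.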 Activity calls are given as the source filed them. Rule as the data show it: active = GI50 up to about 1.1 µM and inactive = higher.

Key:
Assay in all cases: DTP human tumour cell line panel, 48 h
CAKI-1 = test system: CAKI-1
HCT-116 = test system: HCT-116
HOP-62 = test system: HOP-62
IGROV-1 = test system: IGROV-1
KM12 = test system: KM12
MDA-MB-435 = test system: MDA-MB-435
MDA-N = test system: MDA-N
MOLT-4 = test system: MOLT-4
Malme-3M = test system: Malme-3M
NCI-H23 = test system: NCI-H23
OVCAR-5 = test system: OVCAR-5
OVCAR-8 = test system: OVCAR-8
RXF 393 = test system: RXF 393
SK-MEL-28 = test system: SK-MEL-28
SK-MEL-2 = test system: SK-MEL-2
SK-OV-3 = test system: SK-OV-3
SR = test system: SR
SW-620 = test system: SW-620
TK-10 = test system: TK-10
U-251 = test system: U-251

Measured: GI50

CC(C)c1cc2c(cc1S(=O)(=O)O)[C@@]1(C)CCC[C@@](C)(C(=O)O)C1CC2 (stereo not given in full)
inactive: CAKI-1 > 100 µM | HCT-116 > 100 µM | HOP-62 > 100 µM | IGROV-1 > 100 µM | KM12 > 100 µM | MDA-MB-435 > 100 µM | MDA-N > 100 µM | MOLT-4 > 100 µM | Malme-3M > 100 µM | NCI-H23 > 100 µM | OVCAR-5 > 100 µM | OVCAR-8 > 100 µM | RXF 393 > 100 µM | SK-MEL-28 > 100 µM | SK-MEL-2 > 100 µM | SK-OV-3 > 100 µM | SR > 100 µM | SW-620 > 100 µM | TK-10 > 100 µM | U-251 > 100 µM

NCCCN1c2ccccc2Sc2ccc(Cl)cc21
inactive: CAKI-1 > 8.24 µM | HCT-116 2.53 µM | HOP-62 > 10 µM | IGROV-1 > 5.43 µM | KM12 2.51 µM | MDA-MB-435 1.93 µM | MDA-N 3.69 µM | MOLT-4 2.88 µM | Malme-3M 6.97 µM | NCI-H23 > 10 µM | OVCAR-5 > 5.28 µM | OVCAR-8 5.7 µM | RXF 393 > 7.28 µM | SK-MEL-28 > 5.85 µM | SK-MEL-2 > 6.21 µM | SK-OV-3 > 6.56 µM | SR 2.18 µM | SW-620 2.9 µM | TK-10 5.96 µM | U-251 5.38 µM

CC1(C)OC(=O)C(C)(C)OC1=O
inactive: CAKI-1 > 100 µM | HCT-116 > 100 µM | HOP-62 > 100 µM | IGROV-1 > 100 µM | KM12 > 100 µM | MDA-MB-435 > 100 µM | MDA-N > 100 µM | MOLT-4 > 100 µM | Malme-3M > 100 µM | NCI-H23 > 100 µM | OVCAR-5 > 100 µM | OVCAR-8 > 100 µM | RXF 393 > 100 µM | SK-MEL-28 > 100 µM | SK-MEL-2 > 100 µM | SK-OV-3 > 100 µM | SR > 100 µM | SW-620 > 100 µM | TK-10 > 100 µM | U-251 > 100 µM

O=C(/C=C/c1cccc(Br)c1)N1CCN(CCOC(c2ccccc2)c2ccccc2)CC1
inactive: CAKI-1 > 100 µM | HCT-116 29.3 µM | HOP-62 > 100 µM | IGROV-1 81.7 µM | KM12 32 µM | MDA-MB-435 38.7 µM | MDA-N 41.4 µM | MOLT-4 6.53 µM | Malme-3M 36.4 µM | NCI-H23 42 µM | OVCAR-5 > 100 µM | OVCAR-8 55.5 µM | RXF 393 35.7 µM | SK-MEL-28 > 100 µM | SK-MEL-2 43.6 µM | SK-OV-3 > 100 µM | SR 16.1 µM | SW-620 50.8 µM | TK-10 > 100 µM | U-251 35.3 µM

CN(Cc1cc(C(C)(C)C)cc(Br)c1O)Cc1cc(C(C)(C)C)cc(Br)c1O
inactive: CAKI-1 3.4 µM | HCT-116 3.05 µM | HOP-62 4.08 µM | IGROV-1 1.72 µM | KM12 2.52 µM | MDA-MB-435 4.43 µM | MDA-N 4.5 µM | MOLT-4 3.21 µM | Malme-3M 4.58 µM | NCI-H23 3.15 µM | OVCAR-5 5.52 µM | OVCAR-8 4.33 µM | RXF 393 2.21 µM | SK-MEL-28 5.14 µM | SK-MEL-2 2.02 µM | SK-OV-3 9.51 µM | SR 2.86 µM | SW-620 3.48 µM | TK-10 2.17 µM | U-251 2.65 µM

COc1cccc2c(=O)oc(-c3ccccc3C)nc12
inactive: CAKI-1 35.2 µM | HCT-116 29.5 µM | HOP-62 27.3 µM | IGROV-1 18.7 µM | KM12 38 µM | MDA-MB-435 33.6 µM | MDA-N 19.8 µM | MOLT-4 26.7 µM | Malme-3M 42.2 µM | NCI-H23 61.4 µM | OVCAR-5 61.4 µM | OVCAR-8 48.8 µM | RXF 393 30 µM | SK-MEL-28 29.3 µM | SK-MEL-2 26.6 µM | SK-OV-3 > 100 µM | SR 49.4 µM | SW-620 40.6 µM | TK-10 > 100 µM | U-251 45.4 µM
